Data: article PMC13194685 (Cell Death & Disease, 2026)

Assays:
L-glutamate = assay: NMDA injection model: retinal and synaptic glutamate immunoreactivity; format: in vivo, C57BL/6J mice; settings: intravitreal NMDA; eye drops 250 μM daily from one day prior to NMDA through follow-up; n = 3
Method: (§1) Fluorescence intensity was quantified by using ImageJ software.
(§2) Co-localization between fluorescent signals in acquired images was expressed using Pearson’s score, which describes the correlation of the intensity distribution between two distinct fluorescent signals. The analysis was carried out using the “JACOP” plug-in available for the ImageJ software. At least 10 different fields per condition were utilized for the quantification.

JNK2-STX1A interaction = target: T1, JNK2-STX1A interaction (Mus musculus, UniProt Q9WTU6); assay: evONC model: JNK2-STX1A co-localization (Pearson's analysis); format: in vivo, C57BL/6J mice; settings: evONC T24; JGRi1 50, 250, 500 μM, sJGRi1 500 μM; one drop daily for 6 days; n = 5
T1 construct: from tissue; host or cells: retinal cryosections of C57BL/6J mice
Method: (§3) Animals were then euthanized via beheading.
as §1, §2

JNK2 [1] = assay: NMDA injection model: JNK2 immunofluorescence; format: in vivo, C57BL/6J mice; settings: intravitreal NMDA; eye drops 250 μM daily; n = 4
Source text: as §1

[2] = system: retinal ganglion cells (RGCs); assay: Ex vivo optic nerve cut (evONC) model: RGC viability, apoptosis, retinal cytoarchitecture; format: in vivo, C57BL/6J mice; settings: evONC T24, JGRi1 50, 250, 500 μM, sJGRi1 500 μM, n = 4
Method: as §3
(§4) Western blots were quantified by densitometry using ImageJ software.
The enucleated eyes were fixed in 4% paraformaldehyde solution overnight at 4 °C. Then, they were incubated in a 30% sucrose-in-PBS solution overnight, and finally, they were embedded in an optimal cutting temperature (OCT, Sigma, St. Louis, MO, USA) compound. Eyes were cut at a thickness of 20 μm. For reliability, the sections containing the optic nerve were utilized, and in each eye, at least five discontinuous sections were analyzed. For histological examination, cryosections were stained in Mayer’s Hematoxylin Solution (Merck, Germany), rinsed in tap water, then counterstained using Eosin Y alcoholic solution (Merck, Germany). Sections were mounted on coverslips with Eukitt (Merck, Germany), and observed under a light-transmission microscope (Nikon) with 40X magnification.
as §1

[3] = system: retinal ganglion cells (RGCs); assay: NMDA injection model: RGC viability, apoptosis, cytoarchitecture, CTB-488 transport; format: in vivo, C57BL/6J mice
[4] = system: A2 amacrine cells and rod bipolar cells (PROX1-positive); assay: evONC model: PROX1-positive cells in the INL; format: in vivo, C57BL/6J mice; settings: evONC T24; JGRi1 50, 250, 500 μM, sJGRi1 500 μM; one drop daily for 6 days; n = 3
Source text: as §3, §1

microglia (IBA1) = assay: NMDA injection model: microglial infiltration (IBA1 immunofluorescence); format: in vivo, C57BL/6J mice; settings: intravitreal NMDA; eye drops 250 μM daily; n = 5
Source text: as §1

STX1A = settings: evONC T24; JGRi1 50, 250, 500 μM, sJGRi1 500 μM; one drop daily for 6 days; n = 5
Method: Mice were either left untreated or treated for 6 days with a single drop per day of JGRi1 dissolved into a balanced saline solution (BSS) buffer at different concentrations (50 μM, 250 μM, 500 μM). A total volume of 5 μL of JGRi1 solution was applied directly onto the cornea. Treated animals were kept immobilized and under observation for 1 minute to ensure proper peptide penetration within the eye. Animals were then euthanized via beheading. A scrambled version of the peptide (sJGRi1) at a concentration of 500 μM was included as a control. Subsequently, the optic nerve was cut, and the eyes were harvested according to our previously established protocol [25, 26]. The extracted eyes were kept in phosphate-buffered salt (PBS; Capricorn Scientifics, Germany) at 4 °C for 24 hours, then the retinas were dissected and processed accordingly.
Retinal cryosections were permeabilized using 0.5% Tryton-X (Merck, Germany) in PBS (Capricorn Scientifics, Germany) solution for 5 minutes. Then, blocked (0.1 M glycine, 2% w/v bovine serum albumin, 2% v/v fetal calf serum, 0.1% v/v Tryton-X) for 1 hour to avoid non-specific protein interactions. The primary antibody was diluted in the same blocking solution and held overnight at 4 °C. […] Fluorescence intensity was quantified by using ImageJ software.

SNARE complex = assay: evONC model: SNARE complex assay (native PAGE); format: in vivo, C57BL/6J mice; settings: evONC T24; JGRi1 50, 250, 500 μM, sJGRi1 500 μM; one drop daily for 6 days; n = 6
Method: as §3
The modulation SNARE complex assembly by JGRi1 was evaluated via native PAGE. Briefly, samples were loaded using a non-denaturizing loading buffer (0.5 M Tris-HCl, pH 6.8, 15% v/v glycerol, and 1% v/v bromophenol blue). Samples were then left non-boiled to preserve protein-protein interaction, separated onto polyacrylamide gels, and then blotted onto nitrocellulose membranes. The immunoreactive bands were identified by using an antibody against STX1A, which is a core component of SNARE complexes. Bands starting from approximately 66 kDa were quantified as an indicator of the SNARE complex assembly upon treatment. β-tubulin was used as the loading control for quantification.

JNK2 [5] = assay: evONC model: JNK2 expression (immunofluorescence, immunoblot); format: in vivo, C57BL/6J mice; settings: evONC T24; 500 μM eye drops (JGRi1 or sJGRi1), one drop daily for 6 days; n = 5
Source text: as §3, §4, §1

## RISEQLSNIEEGQE [sJGRi1, control]
L-glutamate
  L-glutamate immunofluorescence in retinal tissue: had no effect
JNK2-STX1A interaction
  JNK2-STX1A co-localization (co-immunofluorescence, Pearson's analysis): produced an even more marked co-localization between JNK2 and STX1A
JNK2 [1]
  JNK2 immunoreactivity (immunofluorescence): did not prevent the NMDA-induced increase in JNK2 expression in the inner retina
[2]; one drop daily for 6 days before evONC
  RBPMS-positive cells in the GCL (immunofluorescence), RGC viability: failed to rescue RGC viability upon evONC
[2]; one drop daily for 6 days
  RBPMS expression (immunoblot, densitometry vs β-TUB): did not produce any protective effect on RGC viability in comparison to the active peptide
[3]; intravitreal NMDA 250 μM, 2 μL, eye drops 250 μM, 4 µL daily, from 24 hours prior to NMDA through the 4-week study period, n = 4
  RBPMS-positive cells (immunofluorescence), RGC viability: had no effect on either RGC viability or apoptosis
[3]; intravitreal NMDA, eye drops 250 μM daily from one day prior to NMDA through follow-up, n = 3
  retinal cytoarchitecture (hematoxylin/Eosin staining): failed to do so
[3]; intravitreal NMDA, eye drops 250 μM daily from one day prior to NMDA through follow-up, n = 4
  c-CASP3 immunoreactivity / c-CASP3-positive cells, apoptosis: had no effect on either RGC viability or apoptosis
[3]; intravitreal NMDA, eye drops 250 μM daily, CTB-488 1 µL intravitreal before sacrifice, n = 5
  uptake and transport of the neural tracer CTB-488 in RGCs (mean fluorescence intensity): diminished CTB uptake and transport in RGCs
[4]
  number of PROX1-positive cells in the INL: did not produce any protective effect on PROX1-positive cell number
Microglia (IBA1)
  IBA1 immunoreactivity (microglial infiltration): no reduction was seen upon treatment with sJGRi1
STX1A
  STX1A level (immunofluorescence): does not have any effect on JNK2 nor STX1A expression at T24
SNARE complex
  SNARE complex formation (STX1A signal from about 66 kDa, non-boiled samples, vs β-TUB): did not produce any effect on SNARE complex formation
JNK2 [5]
  JNK2 immunoreactivity (immunofluorescence): does not have any effect on JNK2 nor STX1A expression at T24
